In US11931415B2, “Ophthalmic compositions” (The University of Liverpool, priority 2016, dated 2024):
“And” between values parts separate entries of the source, which are not always exact repeats. Equal values may be shown once.

What was measured:
physchem = conditions: SiO1000, oil or lipid
[1] = literature value; cited from earlier work
[2] = atRA saturation concentration in SiO and blends using tritiated atRA (liquid scintillation)

CC1=C(/C=C/C(C)=C/C=C/C(C)=C/C(=O)O)C(C)(C)CCC1 [atRA, (2E,4E,6E,8E)-3,7-Dimethyl-9-(2,6,6-trimethylcyclohexen-1-yl)nona-2,4,6,8-tetraenoic acid]
solubility (physchem): ~28 µg/mL and 95 µM
Solubility reported for atRA in SiO1000 in the literature [1]: 20 μg/mL and 0.6×10^−4 M
Saturation amount of atRA in SiO1000 blended with 1% PDMS-atRA ([2]; 1% (v/v) PDMS-atRA in SiO1000, after 2 weeks at ambient temperature, in air): 2.17 × 10^−3 M and 651.0 μg/mL
Saturation amount of atRA in SiO1000 blended with 5% PDMS-atRA ([2]; 5% (v/v) PDMS-atRA in SiO1000, after 2 weeks at ambient temperature, in air): 2.33 × 10^−3 M and 699.8 μg/mL
Solubility measured with tritiated atRA relative to the previous values ([2]; in SiO1000, tritiated atRA versus previous values): over 20 times
Saturation of atRA in SiO5000 ([2]; in SiO5000, tritiated atRA, n=1): 610 μg/mL and 2.03×10^−3 M
